A word on the EC50: it is the midpoint of the concentration-response curve.

The first assay deals with HT-1080 (ATCC, CCL-121) cells. Briefly: HT-1080 cell viability assay with ferroptosis inducer RSL3 (Cell Titer-Glo). It is filed as cell-based. The following applies: Homo sapiens; HT-1080 cells treated with RSL3; 3-fold, 10-point dilution, 1.1 μM highest concentration; Table 2; read-out: EC50 (nM), ferroptosis inhibitory activity. A digest of the protocol:
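HT-1080 cells (6000 per well) were cultured overnight at 37 °C, then co-treated with RSL3 and compound in a 3-fold, 10-point series topping at 1.1 μM. Viability was read by CellTiter-Glo luminescence and normalized to untreated controls. EC50 came from a sigmoidal non-linear regression fit.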
(In general: In ATP-based viability assays light output follows the ATP content of the culture.)
Regarding `NCCc1cc(=O)oc2cc(Nc3ccc(N4CCC(C(F)(F)F)CC4)cc3)ccc12` [Compound 122, 4-(2-aminoethyl)-7-((4-(4-(trifluoromethyl)piperidin-1-yl)phenyl)amino)-2H-chromen-2-one], the EC50 was 0.1 to 100 nM.
On to `C#Cc1ccc(Nc2ccc3c(c2)n(C)c(=O)n3C)cc1` [Compound 290, 5-((4-ethynylphenyl)amino)-1,3-dimethyl-1,3-dihydro-2H-benzo[d]imidazol-2-one], for which the EC50 lay in the range of 0.1 to 100 nM.
The same measure, in the same setting: next, `CN1Cc2ccc(Nc3ccc(N4CCC(C(F)(F)F)CC4)cc3)cc2C1=O` [Compound 171, 2-methyl-6-((4-(4-(trifluoromethyl)piperidin-1-yl)phenyl)amino) isoindolin-1-one]: 0.1 to 100 nM.
Still for that read-out and setting: for `O=C1c2ccc(Nc3ccc(N4CCC(C(F)(F)F)CC4)cc3)cc2CN1CC1CC1` [Compound 179, 2-(cyclopropylmethyl)-5-((4-(4-(trifluoromethyl)piperidin-1-yl)phenyl)amino)isoindolin-1-one] the value was 0.1 to 100 nM; for `CN1Cc2cc(Nc3ccc(N4CCCCC4)c(Cl)c3)ccc2C1=O` [Compound 225, 5-((3-chloro-4-(piperidin-1-yl)phenyl)amino)-2-methylisoindolin-1-one], 0.1 to 100 nM; for `CC1CCN(c2ccc(Nc3cc(Cl)c4c(c3)CN(C(=O)C(F)(F)F)C4)cc2)CC1` [Compound 253, 1-(4-chloro-6-((4-(4-methylpiperidin-1-yl)phenyl)amino)isoindolin-2-yl)-2,2,2-trifluoroethan-1-one], 0.1 to 100 nM.
With `CC(C)(C)NC(=O)N1CCOc2cc(Nc3ccc(N4CCC(C(F)(F)F)CC4)cc3)ccc21` [Compound 25], the EC50 is 0.1 to 100 nM.
The same measure, in the same setting: for `CNCCN1C(=O)COc2cc(Nc3ccc(C4CC(C)OC(C)C4)cc3)ccc21` (stereo not drawn) [Compound 54, 7-((4-(2,6-dimethyltetrahydro-2H-pyran-4-yl)phenyl)amino)-4-(2-(methylamino)ethyl)-2H-benzo[b][1,4]oxazin-3(4H)-one] the value was 0.1 to 100 nM.
The same measure, in the same setting: next, `CN1Cc2cc(Nc3ccc(-c4ccccc4)cc3)ccc2C1=O` [Compound 228, 5-([1,1′-biphenyl]-4-ylamino)-2-methylisoindolin-1-one]: 0.1 to 100 nM; `CN1C(=O)CCc2cc(Nc3ccc(N4CCC(C(F)(F)F)CC4)cc3)ccc21` [Compound 127, 1-methyl-6-((4-(4-(trifluoromethyl)piperidin-1-yl)phenyl)amino)-3,4-dihydroquinolin-2(1H)-one]: 0.1 to 100 nM; `CCn1c(=O)oc2ccc(Nc3ccc(N4CCC(C(F)(F)F)CC4)cc3)cc21` [Compound 392, 3-ethyl-5-((4-(4-(trifluoromethyl)piperidin-1-yl)phenyl)amino) benzo[d]oxazol-2(3H)-one]: 0.1 to 100 nM.
Same read-out and setting: for `CC1CCN(c2ccc(Nc3cc(Cl)c4c(c3)CN(C)C4)cc2)CC1` [Compound 267, 7-chloro-2-methyl-N-(4-(4-methylpiperidin-1-yl)phenyl)isoindolin-5-amine] the value was 0.1 to 100 nM; for `COC1(C(F)(F)F)CCN(c2ccc(Nc3ccc4c(c3)n(C)c(=O)n4C)cc2)CC1` [Compound 384, 5-((4-(4-methoxy-4-(trifluoromethyl)piperidin-1-yl)phenyl)amino)-1,3-dimethyl-1,3-dihydro-2H-benzo[d]imidazol-2-one], 0.1 to 100 nM.

The assay is the same for the next values; noted with them: Homo sapiens; HT-1080 cells treated with RSL3; 3-fold, 10-point dilution, 1.1 μM highest concentration; Table 3; read-out: EC50 (nM), ferroptosis inhibitory activity.
For `Cc1cc(N2C[C@@H](C)O[C@@H](C)C2)ccc1Nc1ccc2cn[nH]c2c1` [Compound 648, N-(2-methyl-4-((2S,6R)-2,6-dimethylmorpholino)phenyl)-1H-indazol-6-amine], the EC50 was in the range of 0.1 to 100 nM.
With `Cc1cc(N2CCC(C(F)(F)F)CC2)ccc1Nc1cc2c(cc1C)NC(=O)CO2` [Compound 512, 6-methyl-7-((2-methyl-4-(4-(trifluoromethyl)piperidin-1-yl)phenyl)amino)-2H-benzo[b][1,4]oxazin-3(4H)-one], the EC50 is 0.1 to 100 nM.

Values taken from patent publication US20240327393A1 (SIRONAX LTD., priority 2021, published 2024).
